Results on 20 compounds are retold here after patent publication US20250353848A1, “HETEROCYCLIC PAD4 INHIBITORS” (Celgene Corporation, priority 2022, published 2025).

The target in assay [1] is T1, hPAD4 enzyme (Homo sapiens, UniProt Q9UM07). As to the kind of experiment: RFMS Assay 1 (rapid-fire mass spectrum PAD4 inhibition assay, BAEE substrate). It counts as biochemical. The note with it: 5 nM hPAD4 enzyme, 250 μM BAEE, 30 mins compound and enzyme preincubation at 37° C., 90 min enzyme/substrate reaction. A digest of the protocol: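 Human PAD4 (5 nM) preincubated 30 min at 37 °C with compound (top 50 μM, 0.5% DMSO), then 250 μM BAEE for 90 min at 37 °C in pH 7.5 HEPES with 50 μM calcium, 5 μM TPEN, 1 mM DTT. Product derivatized with phenyl glyoxal; citrulline product quantified by RapidFire MS/MS MRM, normalized to internal standard.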
T1 sequence (Q9UM07 whole entry): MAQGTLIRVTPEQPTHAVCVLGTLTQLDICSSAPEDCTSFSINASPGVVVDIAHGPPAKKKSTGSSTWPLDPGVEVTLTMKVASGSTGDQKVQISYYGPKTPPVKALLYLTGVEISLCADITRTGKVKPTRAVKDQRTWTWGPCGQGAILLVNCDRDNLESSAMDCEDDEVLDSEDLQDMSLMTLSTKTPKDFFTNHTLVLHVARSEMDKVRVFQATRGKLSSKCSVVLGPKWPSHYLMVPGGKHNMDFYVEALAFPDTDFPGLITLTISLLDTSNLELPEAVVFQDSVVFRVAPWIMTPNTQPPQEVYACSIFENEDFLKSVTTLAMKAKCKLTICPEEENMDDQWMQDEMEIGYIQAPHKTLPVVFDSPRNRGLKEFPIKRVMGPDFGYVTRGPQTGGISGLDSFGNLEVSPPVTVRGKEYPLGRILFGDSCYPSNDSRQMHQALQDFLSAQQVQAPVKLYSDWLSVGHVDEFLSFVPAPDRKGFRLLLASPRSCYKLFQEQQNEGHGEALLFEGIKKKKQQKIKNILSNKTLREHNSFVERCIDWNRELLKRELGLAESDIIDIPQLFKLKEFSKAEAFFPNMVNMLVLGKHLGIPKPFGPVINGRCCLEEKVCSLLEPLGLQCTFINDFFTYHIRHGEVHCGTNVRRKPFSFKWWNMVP

For assay [2], the target named is T1, hPAD4 enzyme. The assay can be described thus: RFMS Assay 2 (rapid-fire mass spectrum PAD4 inhibition assay, peptide substrate). The following applies: 35 nM recombinant human PAD4, substrate TSTGGRQGSHH, room temperature for 30 minutes; read-out: human PAD4 (hPAD4) IC50, RFMS Assay 2. It counts as biochemical. As for the experimental part: Stock compounds were dissolved and stored in 100% DMSO. Compound solutions were prepared via serial dilution at 3-fold intervals in DMSO with top compound concentration at […] in each assay. 0.25 μl of compound solution was transferred from the compound plate to the assay plate by using an acoustic dispenser. Final assay conditions: • Total reaction volume: 25 μl • Assay buffer: […] pH 7.4, 200 mM NaCl, 2 mM CaCl2, 5 mM DTT • 35 nM recombinant human PAD4 • 500 µM TSTGGRQGSHH (SEQ ID NO: 1) • 1.2% DMSO • Stop solution: 10% formic acid
Reaction mixtures were incubated at room temperature for 30 minutes. 10 μl each of the reaction mixtures was then mixed with 40 μl of 10% formic acid in a microtiter plate. The plate was frozen at −80° C. before shipping out on dry ice for RapidFire mass spectroscopy analysis.
Thawed samples were loaded onto the Rapid Fire 300 system (Agilent) wherein they were first sipped for 250 ms and then loaded onto a Agilent “C” (C18) cartridge using a mobile phase of water containing 0.09% formic acid/0.01% trifluoroacetic acid for 3000 ms desalting flowing at a rate of 1.5 ml/min. Once the samples were loaded and washed, a mobile phase of acetonitrile containing 0.09% formic acid/0.01% trifluoroacetic acid was used to elute the samples directly onto a Sciex API4000 triple quadrupole mass spectrometer for 3000 ms at a flow rate of 1.25 ml/min.
MRM transitions for substrate and product were monitored in positive ESI mode at m/z=562.3/969.7 and m/z=562.8/541.3 respectively. The dwell time for each transition was set at 100 ms, and the ESI voltage was used at 5500 with a source temperature of 650° C. Extracted ion peaks for each transition were integrated using the Rapid Fire Integrator software.

One may read the IC50 as the concentration at which inhibition is half-maximal.

`Cn1c(-c2cc3cccc(OC(F)Cn4ccnc4)c3n2CC2CC2)nc2cc3c(nc21)CCN(C[C@H](N)CF)C3=O` (single isomer, unassigned) [Example 74b]: the IC50 is ≤ 10 nM in assay [1] and 11 to 100 nM in assay [2].

In the case of `COCCn1c(-c2nc3cc4c(nc3n2C)CCN(C[C@H](N)CF)C4=O)cc2cccc(OC)c21` [Example 2, (S)-7-(2-amino-3-fluoropropyl)-2-(7-methoxy-1-(2-methoxyethyl)-1H-indol-2-yl)-3-methyl-3,5,6,7-tetrahydro-8H-imidazo[4,5-b][1,6]naphthyridin-8-one], the IC50 in assay [1] and in assay [2] was > 1000 nM in each case.

Take `COc1cc(F)cc2cc(-c3nc4cc5c(nc4n3C)CCN(C[C@H](N)CF)C5=O)n(Cc3ccno3)c12` [Example 22, (S)-7-(2-amino-3-fluoropropyl)-2-(5-fluoro-1-(isoxazol-5-ylmethyl)-7-methoxy-1H-indol-2-yl)-3-methyl-3,5,6,7-tetrahydro-8H-imidazo[4,5-b][1,6]naphthyridin-8-one]: the IC50 in assay [1] and in assay [2] was 101 to 500 nM each time.

Regarding `Cn1c(-c2cc3cccnc3n2CC2CC2)nc2cc3c(nc21)CCN(C[C@H](N)CF)C3=O` [Example 19, (S)-7-(2-amino-3-fluoropropyl)-2-(1-(cyclopropylmethyl)-1H-pyrrolo[2,3-b]pyridin-2-yl)-3-methyl-3,5,6,7-tetrahydro-8H-imidazo[4,5-b][1,6]naphthyridin-8-one], the IC50 in assay [1] was 501 to 1000 nM; in assay [2], > 1000 nM.

In the case of `Cn1c(-c2cc3cccc(OCCn4ccnc4)c3n2CC2CC2)nc2cc3c(nc21)CCN(C[C@H](N)CF)C3=O` [Example 44, (S)-2-(7-(2-(1H-imidazol-1-yl)ethoxy)-1-(cyclopropylmethyl)-1H-indol-2-yl)-7-(2-amino-3-fluoropropyl)-3-methyl-3,5,6,7-tetrahydro-8H-imidazo[4,5-b][1,6]naphthyridin-8-one], the results for the IC50 in assay [1] and in assay [2] were ≤ 10 nM and 11 to 100 nM, respectively.

In the case of `C[C@@H](COc1cccc2cc(-c3nc4cc5c(nc4n3C)CCN(C[C@H](N)CF)C5=O)n(CC3CC3)c12)n1cnc(F)c1` [Example 86, 7-((S)-2-amino-3-fluoropropyl)-2-(1-(cyclopropylmethyl)-7-((S)-2-(4-fluoro-1H-imidazol-1-yl)propoxy)-1H-indol-2-yl)-3-methyl-3,5,6,7-tetrahydro-8H-imidazo[4,5-b][1,6]naphthyridin-8-one], the results for the IC50 in assay [1] and in assay [2] were ≤ 10 nM and 11 to 100 nM, respectively.

For the compound `[2H]C([2H])(Oc1cccc2cc(-c3nc4cc5c(nc4n3C)CCN(C[C@H](N)CF)C5=O)n(CC3CC3)c12)C([2H])([2H])n1ccnc1` [Example 95, (S)-2-(7-(2-(1H-imidazol-1-yl)ethoxy-1,1,2,2-d4)-1-(cyclopropylmethyl)-1H-indol-2-yl)-7-(2-amino-3-fluoropropyl)-3-methyl-3,5,6,7-tetrahydro-8H-imidazo[4,5-b][1,6]naphthyridin-8-one], the IC50 was ≤ 10 nM in assay [1] and 11 to 100 nM in assay [2].

Turning to `COc1cccc2cc(-c3nc4cc5c(nc4n3C)CCN(C[C@H](N)CF)C5=O)n(Cc3ncco3)c12` [Example 8, (S)-7-(2-amino-3-fluoropropyl)-2-(7-methoxy-1-(oxazol-2-ylmethyl)-1H-indol-2-yl)-3-methyl-3,5,6,7-tetrahydro-8H-imidazo[4,5-b][1,6]naphthyridin-8-one], the IC50 in assay [1] and in assay [2] was 501 to 1000 nM throughout.

Take `CC(Cc1cnco1)Oc1cc(F)cc2cc(-c3nc4cc5c(nc4n3C)CCN(C[C@H](N)CF)C5=O)n(CC3CC3)c12` (single isomer, unassigned) [Example 65a]: the IC50 in assay [1] is ≤ 10 nM; in assay [2] it was 101 to 500 nM.

As to `Cn1c(-c2cc3cccc(OCCc4ccon4)c3n2CC2CC2)nc2cc3c(nc21)CCN(C[C@H](N)CF)C3=O` [Example 46, (S)-7-(2-amino-3-fluoropropyl)-2-(1-(cyclopropylmethyl)-7-(2-(isoxazol-3-yl)ethoxy)-1H-indol-2-yl)-3-methyl-3,5,6,7-tetrahydro-8H-imidazo[4,5-b][1,6]naphthyridin-8-one], the values for the IC50 in assay [1] and in assay [2] were ≤ 10 nM and 11 to 100 nM, respectively.

Consider `COc1cccc2cc(-c3nc4cc5c(nc4n3C)CCN(C[C@H](N)CF)C5=O)n(CC3CC3)c12` [Example 1, (S)-7-(2-amino-3-fluoropropyl)-2-(1-(cyclopropylmethyl)-7-methoxy-1H-indol-2-yl)-3-methyl-3,5,6,7-tetrahydro-8H-imidazo[4,5-b][1,6]naphthyridin-8-one], for which the IC50 in assay [1] lay within 101 to 500 nM; in assay [2] it was 501 to 1000 nM.

On to `Cc1cncn1CCOc1cccc2cc(-c3nc4cc5c(nc4n3C)CCN(C[C@H](N)CF)C5=O)n(CC3CC3)c12` [Example 71, (S)-7-(2-amino-3-fluoropropyl)-2-(1-(cyclopropylmethyl)-7-(2-(5-methyl-1H-imidazol-1-yl)ethoxy)-1H-indol-2-yl)-3-methyl-3,5,6,7-tetrahydro-8H-imidazo[4,5-b][1,6]naphthyridin-8-one], for which the results for the IC50 in assay [1] and in assay [2] were 11 to 100 nM and 101 to 500 nM, respectively.

Regarding `Cn1c(-c2cc3cccc(OCCn4cncc4F)c3n2CC2CC2)nc2cc3c(nc21)CCN(C[C@H](N)CF)C3=O` [Example 42, (S)-7-(2-amino-3-fluoropropyl)-2-(1-(cyclopropylmethyl)-7-(2-(5-fluoro-1H-imidazol-1-yl)ethoxy)-1H-indol-2-yl)-3-methyl-3,5,6,7-tetrahydro-8H-imidazo[4,5-b][1,6]naphthyridin-8-one], the IC50 in assay [1] lay within 11 to 100 nM; in assay [2], 101 to 500 nM.

With `Cn1c(-c2cc3cccc(OC(F)Cn4ccnc4)c3n2CC2CC2)nc2cc3c(nc21)CCN(C[C@H](N)CF)C3=O` (single isomer, unassigned) [Example 74a], the figures for the IC50 in assay [1] and in assay [2] were ≤ 10 nM and 11 to 100 nM, respectively.

Regarding `Cn1c(-c2cc3ccnc(OC[C@@H]4CNC(=O)C4)c3n2CC2CC2)nc2cc3c(nc21)CCN(C[C@H](N)CF)C3=O` [Example 82, 7-((S)-2-amino-3-fluoropropyl)-2-(1-(cyclopropylmethyl)-7-(((S)-5-oxopyrrolidin-3-yl)methoxy)-1H-pyrrolo[2,3-c]pyridin-2-yl)-3-methyl-3,5,6,7-tetrahydro-8H-imidazo[4,5-b][1,6]naphthyridin-8-one], the IC50 in assay [1] and in assay [2] was 101 to 500 nM in each case.

As for `Cn1c(-c2cc3ccnc(OCCn4ccnc4)c3n2CC2CC2)nc2cc3c(nc21)CCN(C[C@H](N)CF)C3=O` [Example 84, (S)-2-(7-(2-(1H-imidazol-1-yl)ethoxy)-1-(cyclopropylmethyl)-1H-pyrrolo[2,3-c]pyridin-2-yl)-7-(2-amino-3-fluoropropyl)-3-methyl-3,5,6,7-tetrahydro-8H-imidazo[4,5-b][1,6]naphthyridin-8-one], the IC50 was ≤ 10 nM in assay [1] and 11 to 100 nM in assay [2].

For `COc1cccc2cc(-c3nc4cc5c(nc4n3C)CCN(C[C@H](N)CF)C5=O)n(Cc3ncc(C)s3)c12` [Example 10, (S)-7-(2-amino-3-fluoropropyl)-2-(7-methoxy-1-((5-methylthiazol-2-yl)methyl)-1H-indol-2-yl)-3-methyl-3,5,6,7-tetrahydro-8H-imidazo[4,5-b][1,6]naphthyridin-8-one], the IC50 in assay [2] is > 1000 nM.

As for `COc1ccc2cc(-c3nc4cc5c(nc4n3C)CCN(C[C@H](N)CF)C5=O)n(CC3CC3)c2c1` [Example 18, (S)-7-(2-amino-3-fluoropropyl)-2-(1-(cyclopropylmethyl)-6-methoxy-1H-indol-2-yl)-3-methyl-3,5,6,7-tetrahydro-8H-imidazo[4,5-b][1,6]naphthyridin-8-one], the IC50 in assay [2] lay within 501 to 1000 nM.

Regarding `CC(Cc1cnco1)Oc1cc(F)cc2cc(-c3nc4cc5c(nc4n3C)CCN(C[C@H](N)CF)C5=O)n(CC3CC3)c12` (single isomer, unassigned) [Example 65b], the IC50 in assay [2] lay within 101 to 500 nM.

For the compound `Cn1c(-c2cc3cccc(OCC4CC(=O)NC4(C)C)c3n2CC2CC2)nc2cc3c(nc21)CCN(C[C@H](N)CF)C3=O` (stereo partly drawn) [Example 35, 7-((S)-2-amino-3-fluoropropyl)-2-(1-(cyclopropylmethyl)-7-((2,2-dimethyl-5-oxopyrrolidin-3-yl)methoxy)-1H-indol-2-yl)-3-methyl-3,5,6,7-tetrahydro-8H-imidazo[4,5-b][1,6]naphthyridin-8-one], the IC50 in assay [2] is 501 to 1000 nM.
